Source: patent publication US8399429B2, “Uracyl cyclopropyl nucleotides” (Janssen Products, LP, priority 2008, dated 2013)

Columns and labels:
[1] = test system: HCV replicon (Huh-7 luc/neo, NS3-NS5B of HCV type 1b); assay: HCV replicon assay (Huh-Luc, luciferase readout); format: cell-based; conditions: Huh-Luc cells, HCV type 1b replicon, three days incubation, luciferase activity
Source text: The compounds of formula I were examined for activity in the inhibition of HCV RNA replication in a cellular assay aimed at identifying compounds that inhibit a HCV functional cellular replicating cell line, also known as HCV replicons. The cellular assay was based on a bicistronic expression construct, as described by Lohmann et al. (1999), Science vol. 285 pp. 110-113 with modifications described by Krieger et al. (2001), Journal of Virology 75: 4614-4624, in a multi-target screening strategy.
The assay utilized the stably transfected cell line Huh-7 luc/neo (hereafter referred to as Huh-Luc). This cell line harbors an RNA encoding a bicistronic expression construct comprising the wild type NS3-NS5B regions of HCV type 1b translated from an Internal Ribosome Entry Site (IRES) from encephalomyocarditis virus (EMCV), preceded by a reporter portion (FfL-luciferase), and a selectable marker portion (neoR, neomycine phosphotransferase). The construct is bordered by 5′ and 3′ NTRs (non-translated regions) from HCV type 1b. Continued culture of the replicon cells in the presence of G418 (neo^R) is dependent on the replication of the HCV RNA. The stably transfected replicon cells that express HCV RNA, which replicates autonomously and to high levels, encoding inter alia luciferase, were used for screening the antiviral compounds.
The replicon cells were plated in 384 well plates in the presence of the test and control compounds which were added in various concentrations. Following an incubation of three days, HCV replication was measured by assaying luciferase activity (using standard luciferase assay substrates and reagents and a Perkin Elmer ViewLux™ ultraHTS microplate imager). Replicon cells in the control cultures have high luciferase expression in the absence of any inhibitor. The inhibitory activity of the compound on luciferase activity was monitored on the Huh-Luc cells, enabling a dose-response curve for each test compound. EC50 values were then calculated, which value represents the amount of the compound required to decrease the level of detected luciferase activity by 50%, or more specifically, the ability of the genetically linked HCV replicon RNA to replicate.

[2] = Cellular toxicity in the HIV cell-line (MT-4); format: cell-based, human; conditions: human
Protocol: (§1) Compounds of the invention were tested for their potency against wild type human immunodeficiency virus (HIV). Antiviral activity was evaluated using a cellular assay performed according to the following procedure. The human T-cell line MT4 was engineered with Green Fluorescent Protein (GFP) and a HIV-specific promoter, HIV-1 long terminal repeat (LTR). This cell line, designated MT4 LTR-EGFP, can be used for the in vitro evaluation of anti-HIV activity of investigational compounds. In HIV-1 infected cells, the Tat protein is produced, which upregulates the LTR promotor and eventually leads to stimulation of the GFP reporter production, allowing to measure ongoing HIV-infection fluorometrically. Effective concentration values such as 50% effective concentration (EC50) can be determined and are usually expressed in μM. An EC50 value is defined as the concentration of test compound that reduces the fluorescence of HIV-infected cells by 50%. Monitoring of HIV-1 infection was done using a scanning microscope. Image analysis allows very sensitive detection of viral infection. Measurements were done before cell necrosis, which usually takes place about five days after infection, in particular measurements were performed three days after infection. The column IIIB in the table list the EC50 values against the wild type strain IIIB.
Also the HIV activity is given (EC50 HIV (μM)) and the cellular toxicity in the HIV cell-line (CC50 (μM) (MT-4)).

[3] = test system: wild type human immunodeficiency virus (HIV) strain IIIB; assay: HIV assay in MT4 LTR-EGFP cells; format: cell-based, HIV-1; conditions: Human immunodeficiency virus 1, IIIB, 72 h, three days after infection
Protocol: as §1

[4] = Cellular toxicity in Huh7-CMV-Luc replicon assay; format: cell-based; conditions: human, Huh7-CMV-Luc cells, three days incubation, Luc activity; read-out: CC50 (μM) (Huh-7)
Protocol: Cellular toxicity was determined in the Huh7-CMV-Luc replicon assay. Replicon cells (2500 cells/well), stably transformed with a luciferase reporter gene under control of the cytomegalovirus (CMV) constitutive promotor, were cultured in the presence or absence of test compound concentrations. After three days of incubation at 37° C. in a humidified 5% CO2 atmosphere, cell proliferation was quantified by measuring the Luc activity, and expressed as CC50 values (cytotoxicity, 50% inhibitory concentration of cell growth). Tests were performed in 384-well plates.

Row | SMILES | EC50 [1] [µM] | CC50 [2] [µM] | EC50 [3] [µM] | CC50 at 3 days [4] [µM] | EC50 ([1]; Hepatitis C virus, Huh-7, 72 h) [µM]
1 | C[C@H](NP(=O)(OC[C@H]1O[C@@H](n2ccc(=O)[nH]c2=O)C2(CC2)[C@@H]1O)Oc1ccc(Cl)cc1)C(=O)OCc1ccccc1 (single isomer, unassigned) [Compound 7a] | 10.9 | > 50 | > 60 | 58.4 | –
2 | C[C@H](NP(=O)(OC[C@H]1O[C@@H](n2ccc(=O)[nH]c2=O)C2(CC2)[C@@H]1O)Oc1cccc2ccccc12)C(=O)OCc1ccccc1 (stereo partly drawn) [Compound 1] | – | > 32 | > 50 | > 98 | 2.8
3 | Cc1cc(OP(=O)(N[C@@H](C)C(=O)OCc2ccccc2)OC[C@H]2O[C@@H](n3ccc(=O)[nH]c3=O)C3(CC3)[C@@H]2O)c(C(C)C)cc1Cl (stereo partly drawn) [Compound 2] | – | > 32 | > 50 | > 32 | 14.3
4 | CC(C)OC(=O)[C@H](C)NP(=O)(OC[C@H]1O[C@@H](n2ccc(=O)[nH]c2=O)C2(CC2)[C@@H]1O)Oc1ccccc1 (stereo partly drawn) [Compound 3] | – | > 98 | > 98 | > 98 | 9.6
5 | CC(C)(NP(=O)(OC[C@H]1O[C@@H](n2ccc(=O)[nH]c2=O)C2(CC2)[C@@H]1O)Oc1ccccc1)C(=O)OCc1ccccc1 (stereo partly drawn) [Compound 4] | – | > 98 | > 98 | > 98 | 23.9
6 | CCOC(=O)[C@H](C)NP(=O)(OC[C@H]1O[C@@H](n2ccc(=O)[nH]c2=O)C2(CC2)[C@@H]1O)Oc1ccccc1 (stereo partly drawn) [Compound 5] | – | > 98 | > 90 | > 98 | 9.2
7 | O=C(CNP(=O)(OC[C@H]1O[C@@H](n2ccc(=O)[nH]c2=O)C2(CC2)[C@@H]1O)Oc1cccc2ccccc12)OCc1ccccc1 (stereo partly drawn) [Compound 6] | – | > 98 | > 90 | > 98 | 16.5
8 | C[C@H](NP(=O)(OC[C@H]1O[C@@H](n2ccc(=O)[nH]c2=O)C2(CC2)[C@@H]1O)Oc1ccc(Cl)cc1)C(=O)OCc1ccccc1 (stereo partly drawn) [Compound 7] | – | > 64 | > 90 | > 90 | 6.1
9 | CCOC(=O)[C@H](C)NP(=O)(OC[C@H]1O[C@@H](n2ccc(=O)[nH]c2=O)C2(CC2)[C@@H]1O)Oc1ccc(Cl)cc1 (stereo partly drawn) [Compound 8] | – | > 98 | > 98 | > 98 | 5.9
10 | C[C@H](NP(=O)(OC[C@H]1O[C@@H](n2ccc(=O)[nH]c2=O)C2(CC2)[C@@H]1O)Oc1ccccc1)C(=O)OCc1ccccc1 (stereo partly drawn) [Compound 9] | – | > 98 | > 85 | > 98 | 2.9
11 | CCCC(CCC)COC(=O)[C@H](C)NP(=O)(OC[C@H]1O[C@@H](n2ccc(=O)[nH]c2=O)C2(CC2)[C@@H]1O)Oc1ccccc1 (stereo partly drawn) [Compound 10] | – | 29 | > 60 | > 32 | 2.8
12 | C[C@H](NP(=O)(OC[C@H]1O[C@@H](n2ccc(=O)[nH]c2=O)C2(CC2)[C@@H]1O)Oc1ccccc1)C(=O)OCC(C)(C)C (stereo partly drawn) [Compound 11] | – | > 98 | > 98 | > 98 | 2.8
13 | CCCCOC(=O)[C@H](C)NP(=O)(OC[C@H]1O[C@@H](n2ccc(=O)[nH]c2=O)C2(CC2)[C@@H]1O)Oc1ccccc1 (stereo partly drawn) [Compound 12] | – | > 98 | > 98 | > 98 | 3.1
14 | CC(C)COC(=O)[C@H](C)NP(=O)(OC[C@H]1O[C@@H](n2ccc(=O)[nH]c2=O)C2(CC2)[C@@H]1O)Oc1ccccc1 (stereo partly drawn) [Compound 13] | – | > 98 | > 98 | > 98 | 3.2
15 | C[C@H](NP(=O)(OC[C@H]1O[C@@H](n2ccc(=O)[nH]c2=O)C2(CC2)[C@@H]1O)Oc1ccccc1)C(=O)OC1CCCC1 (stereo partly drawn) [Compound 14] | – | > 98 | > 98 | > 98 | 3.3
16 | CCCCOC(=O)[C@H](C)NP(=O)(OC[C@H]1O[C@@H](n2ccc(=O)[nH]c2=O)C2(CC2)[C@@H]1O)Oc1cccc2ccccc12 (stereo partly drawn) [Compound 15] | – | > 60 | > 60 | > 98 | 3.6
17 | C[C@H](NP(=O)(OC[C@H]1O[C@@H](n2ccc(=O)[nH]c2=O)C2(CC2)[C@@H]1O)Oc1ccc2c(ccn2C(=O)OC(C)(C)C)c1)C(=O)OCc1ccccc1 (stereo partly drawn) [Compound 16] | – | > 32 | > 98 | > 32 | 4.2
18 | CCOC(=O)[C@H](Cc1ccccc1)NP(=O)(OC[C@H]1O[C@@H](n2ccc(=O)[nH]c2=O)C2(CC2)[C@@H]1O)Oc1ccccc1 (stereo partly drawn) [Compound 17] | – | > 98 | > 98 | > 98 | 4.4
19 | C=CCCCCOC(=O)[C@H](C)NP(=O)(OC[C@H]1O[C@@H](n2ccc(=O)[nH]c2=O)C2(CC2)[C@@H]1O)Oc1ccc(CC=C)cc1OC (stereo partly drawn) [Compound 18] | – | > 64 | > 98 | > 98 | 5.1
20 | C[C@H](NP(=O)(OC[C@H]1O[C@@H](n2ccc(=O)[nH]c2=O)C2(CC2)[C@@H]1O)Oc1ccc(C(C)(C)C)cc1)C(=O)OCc1ccccc1 (stereo partly drawn) [Compound 19] | – | > 32 | > 32 | > 32 | 7.2
21 | C[C@H](NP(=O)(OC[C@H]1O[C@@H](n2ccc(=O)[nH]c2=O)C2(CC2)[C@@H]1O)Oc1ccc2[nH]ccc2c1)C(=O)OCc1ccccc1 (stereo partly drawn) [Compound 20] | – | > 98 | > 98 | > 32 | 7.6
22 | CC[C@H](NP(=O)(OC[C@H]1O[C@@H](n2ccc(=O)[nH]c2=O)C2(CC2)[C@@H]1O)Oc1ccccc1)C(=O)OCc1ccccc1 (stereo partly drawn) [Compound 21] | – | > 80 | > 98 | > 98 | 7.8
23 | CCOC(=O)c1ccccc1OP(=O)(N[C@@H](C)C(=O)OCc1ccccc1)OC[C@H]1O[C@@H](n2ccc(=O)[nH]c2=O)C2(CC2)[C@@H]1O (stereo partly drawn) [Compound 34] | – | – | – | > 98 | 11
